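Each compound was tested at five concentrations against cells in 96-well plates for 48 hours. Abbreviation: GI50, concentration required for 50% inhibition of growth.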 Activity calls are given as the source filed them. Rule as the data show it: active = GI50 up to about 1.1 µM and inactive = higher.
How the values were obtained:
Test in all cases: NCI anticancer screen, dose series, 48 h
[1] = system: RXF 631
[2] = system: LXFL 529
[3] = system: OVCAR-3
[4] = system: OVCAR-5
[5] = system: HOP-62
[6] = system: CAKI-1
[7] = system: HT-29
[8] = system: IGROV-1
[9] = system: TK-10
[10] = system: ACHN
[11] = system: DMS-273
[12] = system: SN12C
[13] = system: EKVX
[14] = system: MOLT-4
[15] = system: NCI-H226
[16] = system: COLO 205
[17] = system: OVCAR-4
[18] = system: SF-295
[19] = system: HOP-92
[20] = system: SF-268
[21] = system: NCI-H460
[22] = system: A498
[23] = system: HCT-116
[24] = system: LOX IMVI
[25] = system: A549
[26] = system: Malme-3M
[27] = system: K562
[28] = system: SF-539
[29] = system: OVCAR-8
[30] = system: NCI-H23
[31] = system: HL-60
[32] = system: SK-OV-3
[33] = system: SK-MEL-5
[34] = system: UACC-62
[35] = system: NCI-H522
[36] = system: HCT-15
[37] = system: HOP-18
[38] = system: SNB-75
[39] = system: HCC 2998
[40] = system: SW-620
[41] = system: SNB-19
[42] = system: SK-MEL-2
[43] = system: M14
[44] = system: DMS-114
[45] = system: UO-31
[46] = system: KM12
[47] = system: SR
[48] = system: M19-MEL
[49] = system: UACC-257
[50] = system: U-251
[51] = system: 786-0
[52] = system: RPMI-8226
[53] = system: SK-MEL-28
[54] = system: KM-20L2
[55] = system: CCRF-CEM
[56] = system: XF498
[57] = system: RXF 393
[58] = system: DLD-1

For `COc1cc2ccnc(-c3n[nH]c4cc(OC)c(OC)cc34)c2cc1OC`, the GI50 [1] was 33 µM (inactive), the GI50 [2] was > 100 µM (inactive) and the GI50 [3] was > 100 µM (inactive). For the same compound, the GI50 [4] was > 100 µM (inactive), the GI50 [5] was > 100 µM (inactive) and the GI50 [6] was > 100 µM (inactive). For the same compound, the GI50 [7] was > 100 µM (inactive), the GI50 [8] was > 100 µM (inactive) and the GI50 [9] was > 100 µM (inactive). For the same compound, the GI50 [10] was > 100 µM (inactive), the GI50 [11] was > 100 µM (inactive) and the GI50 [12] was > 100 µM (inactive). For the same compound, the GI50 [13] was > 100 µM (inactive), the GI50 [14] was > 100 µM (inactive) and the GI50 [15] was > 100 µM (inactive). For the same compound, the GI50 [16] was > 100 µM (inactive), the GI50 [17] was > 100 µM (inactive) and the GI50 [18] was > 100 µM (inactive). For the same compound, the GI50 [19] was > 100 µM (inactive), the GI50 [20] was 62.4 µM (inactive) and the GI50 [21] was > 100 µM (inactive). For the same compound, the GI50 [22] was > 100 µM (inactive), the GI50 [23] was > 100 µM (inactive) and the GI50 [24] was > 100 µM (inactive). For the same compound, the GI50 [25] was > 100 µM (inactive), the GI50 [26] was > 100 µM (inactive) and the GI50 [27] was > 100 µM (inactive). The GI50 [28] was > 100 µM (inactive), the GI50 [29] was > 100 µM (inactive) and the GI50 [30] was > 100 µM (inactive). For the same compound, the GI50 [31] was > 100 µM (inactive), the GI50 [32] was > 100 µM (inactive) and the GI50 [33] was > 100 µM (inactive). The GI50 [34] was > 100 µM (inactive), the GI50 [35] was 22 µM (inactive) and the GI50 [36] was greater than 100 µM. For the same compound, the GI50 [37] was > 100 µM (inactive), the GI50 [38] was > 100 µM (inactive) and the GI50 [39] was > 100 µM (inactive). For the same compound, the GI50 [40] was > 100 µM (inactive), the GI50 [41] was > 100 µM (inactive) and the GI50 [42] was > 100 µM (inactive). For the same compound, the GI50 [43] was > 100 µM (inactive), the GI50 [44] was > 100 µM (inactive) and the GI50 [45] was > 100 µM (inactive). For the same compound, the GI50 [46] was > 100 µM (inactive), the GI50 [47] was > 100 µM (inactive) and the GI50 [48] was > 100 µM (inactive). The GI50 [49] was > 100 µM (inactive), the GI50 [50] was > 100 µM (inactive) and the GI50 [51] was > 100 µM (inactive). The GI50 [52] was > 100 µM (inactive), the GI50 [53] was > 100 µM (inactive) and the GI50 [54] was > 100 µM (inactive). The GI50 [55] was > 100 µM (inactive) and the GI50 [56] was > 100 µM (inactive).
In the case of `CCC12CCCN(Cc3ccccc3)C1c1c(n(C)c3ccccc13)[C@H](C(=O)OC)C2` (stereo partly drawn), the GI50 [1] was > 239 µM (inactive), the GI50 [2] was > 239 µM (inactive) and the GI50 [3] was > 239 µM (inactive). For the same compound, the GI50 [4] was 147 µM (inactive), the GI50 [5] was > 239 µM (inactive) and the GI50 [6] was 173 µM (inactive). The GI50 [57] was > 239 µM (inactive), the GI50 [7] was 32 µM (inactive) and the GI50 [8] was > 239 µM (inactive). The GI50 [9] was > 239 µM (inactive), the GI50 [10] was > 239 µM (inactive) and the GI50 [11] was > 239 µM (inactive). The GI50 [58] was > 239 µM (inactive), the GI50 [12] was 224 µM (inactive) and the GI50 [13] was > 239 µM (inactive). The GI50 [14] was > 239 µM (inactive), the GI50 [15] was > 239 µM (inactive) and the GI50 [16] was 112 µM (inactive). The GI50 [18] was > 239 µM (inactive), the GI50 [19] was 10.6 µM (inactive) and the GI50 [20] was > 239 µM (inactive). For the same compound, the GI50 [21] was > 239 µM (inactive), the GI50 [23] was 146 µM (inactive) and the GI50 [24] was > 239 µM (inactive). The GI50 [25] was > 239 µM (inactive), the GI50 [26] was > 239 µM (inactive) and the GI50 [27] was > 239 µM (inactive). The GI50 [28] was > 239 µM (inactive), the GI50 [29] was > 239 µM (inactive) and the GI50 [30] was > 239 µM (inactive). The GI50 [31] was > 239 µM (inactive), the GI50 [32] was > 239 µM (inactive) and the GI50 [33] was 142 µM (inactive). For the same compound, the GI50 [34] was > 239 µM (inactive), the GI50 [35] was 122 µM (inactive) and the GI50 [36] was 85.7 µM. The GI50 [39] was > 239 µM (inactive), the GI50 [40] was 211 µM (inactive) and the GI50 [41] was > 239 µM (inactive). The GI50 [42] was > 239 µM (inactive), the GI50 [44] was 226 µM (inactive) and the GI50 [46] was > 239 µM (inactive). For the same compound, the GI50 [47] was > 239 µM (inactive), the GI50 [48] was 130 µM (inactive) and the GI50 [49] was 110 µM (inactive). For the same compound, the GI50 [50] was > 239 µM (inactive), the GI50 [51] was > 239 µM (inactive) and the GI50 [52] was > 239 µM (inactive). For the same compound, the GI50 [53] was > 239 µM (inactive), the GI50 [54] was 120 µM (inactive) and the GI50 [55] was > 239 µM (inactive). The GI50 [56] was 201 µM (inactive).

— ChEMBL document CHEMBL1201862, “PubChem BioAssay data set” (2004)
